Tests used:
rat [1] = settings: Prenatal developmental toxicity study, sprague dawley, Inhalation, Whole-Body, dose end: 20 GD
rat [2] = settings: Subchronic oral toxicity in rodents; wistar; Inhalation; Whole-Body; dose end: 90 day; group: systemic; systemic / clinical chemistry / alkaline phosphatase (alp/alk) / alkaline phosphatase (alp/alk) + systemic / clinical chemistry / lactic …
mouse [3] = settings: Combined chronic toxicity/carcinogenicity, cd1, Oral, Feed, dose end: 104 week, group: systemic
dog [4] = settings: Subchronic oral toxicity in nonrodent, beagle, Capsule, dose end: 26 week, group: systemic
rat [5] = settings: Multigenerational reproductive toxicity study, wistar, Oral, Feed, dose end: 3 generation
rat [6] = settings: Combined chronic toxicity/carcinogenicity; sprague dawley; Oral; Feed; dose end: 2 year; group: systemic; systemic / in life observation / body weight / body weight + systemic / in life observation / food consumption / food consumption
rat [7] = settings: Subchronic oral toxicity in rodents, wistar, [Not Specified], dose end: 13 week, group: systemic
rat [8] = settings: Prenatal developmental toxicity study, sprague dawley, Oral, Gavage/Intubation, dose end: 19 GD
rat [9] = settings: Subchronic oral toxicity in rodents, other, Feed, dose end: 13 week, group: systemic
rat [10] = settings: Combined chronic toxicity/carcinogenicity; sprague dawley; Oral; Feed; dose end: 24 month; group: systemic; systemic / in life observation / body weight / body weight gain
dog [11] = settings: Subchronic oral toxicity in nonrodent, beagle, Feed, dose end: 26 week, group: systemic
mouse [12] = settings: Carcinogenicity, cd1, Oral, Feed, dose end: 24 month, group: systemic
rat [13] = settings: Subchronic oral toxicity in rodents, sprague dawley, Feed, dose end: 90 day
mouse [14] = settings: Carcinogenicity; cd1; Oral; Feed; dose end: 18 month; group: systemic; systemic / in life observation / body weight / body weight + systemic / in life observation / mortality / mortality
dog [15] = settings: Chronic toxicity, beagle, Oral, Feed, dose end: 52 week
rat [16] = settings: Prenatal developmental toxicity study, other, Oral, Gavage/Intubation, dose end: 16 GD
rat [17] = settings: Multigenerational reproductive toxicity study, sprague dawley, Oral, Feed, dose end: 2 generation
[18] = group: developmental, systemic / in life observation / body weight / fetal weight
[19] = group: maternal, systemic / in life observation / body weight / body weight gain + systemic / in life observation / food consumption / food consumption
[20] = systemic / in life observation / clinical signs / defecation (diarrhea)
[21] = systemic / in life observation / clinical signs / defecation (diarrhea) + systemic / in life observation / clinical signs / headflicking + …
[22] = group: offspring, systemic / in life observation / body weight / offspring (pup) weight + systemic / in life observation / body weight / offspring (pup) …
[23] = group: parental, systemic / in life observation / body weight / body weight + systemic / in life observation / body weight / body weight gain
[24] = group: reproductive, reproductive / offspring survival early / litter size / litter size + reproductive / offspring survival early / birth index / live birth …
[25] = systemic / clinical chemistry / aminopyrine-n-demethylase / aminopyrine-n-demethylase + systemic / in life observation / body weight / body …
[26] = group: developmental, developmental / developmental malformation / bone / [other] + developmental / developmental malformation / bone / unossified
[27] = group: maternal, systemic / in life observation / body weight / body weight gain + systemic / in life observation / clinical signs / nasal discharge + …
[28] = systemic / organ weight / liver / absolute + systemic / organ weight / liver / relative to body weight
[29] = systemic / in life observation / body weight / body weight + systemic / in life observation / body weight / body weight gain
[30] = systemic / in life observation / body weight / body weight + systemic / in life observation / body weight / body weight gain + systemic / …
[31] = group: cholinesterase, cholinesterase / cholinesterase / cholinesterase / brain cholinesterase (che) + cholinesterase / cholinesterase / cholinesterase / …
[32] = group: systemic, systemic / in life observation / body weight / body weight + systemic / in life observation / clinical signs / abnormal gait + systemic / in…
[33] = group: cholinesterase, cholinesterase / cholinesterase / cholinesterase / brain cholinesterase (che)
[34] = group: cholinesterase, cholinesterase / cholinesterase / cholinesterase / brain cholinesterase (che) + cholinesterase / cholinesterase / cholinesterase / plasma …
[35] = group: systemic, systemic / in life observation / body weight / body weight + systemic / in life observation / body weight / body weight gain + systemic / in…
[36] = group: systemic, systemic / in life observation / body weight / body weight gain
[37] = group: maternal, systemic / in life observation / body weight / body weight gain + systemic / in life observation / clinical signs / tremors + systemic / in …
[38] = group: offspring, systemic / in life observation / body weight / offspring (pup) weight
[39] = group: offspring, systemic / in life observation / body weight / offspring (pup) weight + developmental / offspring survival late / [other] / [other] + …
[40] = group: parental, systemic / in life observation / body weight / body weight + systemic / in life observation / body weight / body weight gain + systemic / in…

Cc1ccc(C)c(C)c1 [1,2,4-Trimethylbenzene] showed an LEL (rat [1]; [18]) of 600 ppm, an LOAEL (rat [1]; [18]) greater than 600 ppm and an NEL (rat [1]; [18]) of 300 ppm. For the same compound, the NOAEL (rat [1]; [18]) was no less than 600 ppm, the LEL (rat [1]; [19]) was 600 ppm and the LOAEL (rat [1]; [19]) was greater than 600 ppm. The NEL (rat [1]; [19]) was 300 ppm, the NOAEL (rat [1]; [19]) was no less than 600 ppm and the LEL (rat [2]) was 25 ppm. The LOAEL (rat [2]) was greater than 250 ppm, the NEL (rat [2]) was less than 25 ppm and the NOAEL (rat [2]) was no less than 250 ppm.
With CC1(C)C(C=C(Cl)C(F)(F)F)C1C(=O)OC(C#N)c1cccc(Oc2ccccc2)c1 (stereo not given) [Cyhalothrin] the NEL (mouse [3]; systemic / in life observation / body weight / body weight + systemic / in life observation / body weight / body weight gain + systemic / in…) was 3 mg/kg/day, the NOAEL (mouse [3]; systemic / in life observation / clinical signs / hunched posture + systemic / in life observation / clinical signs / piloerection) was 15 mg/kg/day and the LOAEL (mouse [3]; systemic / in life observation / clinical signs / hunched posture + systemic / in life observation / clinical signs / piloerection + …) was 75 mg/kg/day. For the same compound, the LEL (mouse [3]; systemic / in life observation / clinical signs / piloerection) was 15 mg/kg/day, the LEL (dog [4]; [20]) was 2.5 mg/kg/day and the LOAEL (dog [4]; [20]) was 2.5 mg/kg/day. It also gave an NEL (dog [4]; [21]) of 1 mg/kg/day, an NOAEL (dog [4]; [21]) of 1 mg/kg/day and an LEL (rat [5]; [22]) of 1.5 mg/kg/day. For the same compound, the LOAEL (rat [5]; [22]) was 5 mg/kg/day, the NEL (rat [5]; [22]) was 0.5 mg/kg/day and the NOAEL (rat [5]; [22]) was 1.5 mg/kg/day. It also gave an LEL (rat [5]; [23]) of 1.5 mg/kg/day, an LOAEL (rat [5]; [23]) of 5 mg/kg/day and an NEL (rat [5]; [23]) of 0.5 mg/kg/day. For the same compound, the NOAEL (rat [5]; [23]) was 1.5 mg/kg/day, the NEL (rat [5]; group: reproductive, reproductive / offspring survival early / litter size / litter size) was 1.5 mg/kg/day and the LEL (rat [5]; [24]) was 5 mg/kg/day. It also gave an LOAEL (rat [5]; [24]) greater than 5 mg/kg/day, an NOAEL (rat [5]; [24]) of no less than 5 mg/kg/day and an LEL (rat [6]) of 12.5 mg/kg/day. For the same compound, the LOAEL (rat [6]) was 12.5 mg/kg/day, the NEL (rat [6]) was 2.5 mg/kg/day and the NOAEL (rat [6]) was 2.5 mg/kg/day. For the same compound, the LEL (rat [7]; systemic / clinical chemistry / aminopyrine-n-demethylase / aminopyrine-n-demethylase) was 2.5 mg/kg/day, the NEL (rat [7]; [25]) was 0.5 mg/kg/day and the NOAEL (rat [7]; [25]) was 2.5 mg/kg/day. For the same compound, the LOAEL (rat [7]; systemic / in life observation / body weight / body weight gain) was 12.5 mg/kg/day.
Compound Nc1nc(N)nc(NC2CC2)n1 [Cyromazine] has an LEL (rat [8]; [26]) of 600 mg/kg/day, an LOAEL (rat [8]; [26]) of 600 mg/kg/day and an NEL (rat [8]; [26]) of 300 mg/kg/day. It also gave an NOAEL (rat [8]; [26]) of 300 mg/kg/day, an LOAEL (rat [8]; group: maternal, systemic / in life observation / body weight / body weight gain + systemic / in life observation / clinical signs / nasal discharge) of 300 mg/kg/day and an LEL (rat [8]; [27]) of 300 mg/kg/day. The NEL (rat [8]; [27]) was 100 mg/kg/day, the NOAEL (rat [8]; [27]) was 100 mg/kg/day and the LEL (rat [9]; [28]) was 3 mg/kg/day. The LOAEL (rat [9]; [28]) was 30 mg/kg/day, the NEL (rat [9]; [28]) was less than 3 mg/kg/day and the NOAEL (rat [9]; systemic / organ weight / liver / absolute + systemic / organ weight / liver / relative to body weight + systemic / clinical chemistry / …) was 3 mg/kg/day. It also gave an LEL (rat [10]) of 15 mg/kg/day, an LOAEL (rat [10]) of 15 mg/kg/day and an NEL (rat [10]) of 1.5 mg/kg/day. For the same compound, the NOAEL (rat [10]) was 1.5 mg/kg/day, the LOAEL (dog [11]; systemic / in life observation / body weight / body weight + systemic / hematology / hematocrit (hct) / hematocrit (hct) + systemic / …) was 75 mg/kg/day and the LEL (dog [11]; [29]) was 0.75 mg/kg/day. The NEL (dog [11]; [29]) was less than 0.75 mg/kg/day, the NOAEL (dog [11]; [30]) was 7.5 mg/kg/day and the LOAEL (mouse [12]; systemic / in life observation / body weight / body weight) was 150 mg/kg/day. For the same compound, the LEL (mouse [12]; [29]) was 150 mg/kg/day, the NEL (mouse [12]; [30]) was 7.5 mg/kg/day and the NOAEL (mouse [12]; [30]) was 7.5 mg/kg/day.
For CNC(=O)ON=C(SC)C(=O)N(C)C [Oxamyl], the LEL (rat [13]; [31]) was 14.9 mg/kg/day, the LOAEL (rat [13]; [31]) was 14.9 mg/kg/day and the NEL (rat [13]; [31]) was 2.1 mg/kg/day. The NOAEL (rat [13]; [31]) was 2.1 mg/kg/day, the LEL (rat [13]; [32]) was 14.9 mg/kg/day and the LOAEL (rat [13]; [32]) was 14.9 mg/kg/day. The NEL (rat [13]; [32]) was 2.1 mg/kg/day, the NOAEL (rat [13]; [32]) was 2.1 mg/kg/day and the LEL (mouse [14]) was 7.5 mg/kg/day. For the same compound, the LOAEL (mouse [14]) was 7.5 mg/kg/day, the NEL (mouse [14]) was 3.75 mg/kg/day and the NOAEL (mouse [14]) was 3.75 mg/kg/day. For the same compound, the LOAEL (dog [15]; [33]) was 1.56 mg/kg/day, the NOAEL (dog [15]; [33]) was less than 1.56 mg/kg/day and the LEL (dog [15]; [34]) was 1.56 mg/kg/day. It also gave an NEL (dog [15]; [34]) of less than 1.56 mg/kg/day, an LOAEL (dog [15]; [35]) of 4.5 mg/kg/day and an NOAEL (dog [15]; [35]) of 1.46 mg/kg/day. The LEL (dog [15]; [36]) was 1.56 mg/kg/day, the NEL (dog [15]; [36]) was less than 1.56 mg/kg/day and the LEL (rat [16]; [18]) was 0.5 mg/kg/day. For the same compound, the LOAEL (rat [16]; [18]) was 0.5 mg/kg/day, the NEL (rat [16]; [18]) was 0.2 mg/kg/day and the NOAEL (rat [16]; [18]) was 0.2 mg/kg/day. For the same compound, the LEL (rat [16]; [37]) was 0.8 mg/kg/day, the LOAEL (rat [16]; [37]) was 0.8 mg/kg/day and the NEL (rat [16]; [37]) was 0.5 mg/kg/day. It also gave an NOAEL (rat [16]; [37]) of 0.5 mg/kg/day, an LEL (rat [17]; [38]) of 5.2 mg/kg/day and an LOAEL (rat [17]; [38]) of 5.2 mg/kg/day. The NEL (rat [17]; [39]) was 1.7 mg/kg/day, the NOAEL (rat [17]; [39]) was 1.7 mg/kg/day and the LEL (rat [17]; [40]) was 5.2 mg/kg/day. For the same compound, the LOAEL (rat [17]; [40]) was 5.2 mg/kg/day, the NEL (rat [17]; [40]) was 1.7 mg/kg/day and the NOAEL (rat [17]; [40]) was 1.7 mg/kg/day.
